In the NIST ThermoML archive (doi:10.1016/j.jct.2017.07.008):
± gives the expanded uncertainty stated by the source.

Assay: refractive index (Na D-line) (dimensionless)
Settings: 100 kPa, Liquid, Standard Abbe refractometry

Compound	refractive index (283.15 K)	refractive index (285.65 K)	refractive index (288.15 K)	refractive index (290.65 K)	refractive index (293.15 K)	refractive index (295.65 K)	refractive index (298.15 K)	refractive index (300.65 K)	refractive index (303.15 K)	refractive index (305.65 K)	refractive index (308.15 K)	refractive index (310.65 K)	refractive index (313.15 K)	refractive index (315.65 K)	refractive index (318.15 K)	refractive index (320.65 K)	refractive index (323.15 K)	refractive index (325.65 K)	refractive index (328.15 K)	refractive index (330.65 K)	other results
O=Cc1cccs1 [2-thiophenealdehyde]	1.5924 ± 0.0004	1.5912 ± 0.0004	1.59 ± 0.0004	1.5888 ± 0.0004	1.5876 ± 0.0004	1.5864 ± 0.0004	1.5853 ± 0.0004	1.5841 ± 0.0004	1.5829 ± 0.0004	1.5817 ± 0.0004	1.5805 ± 0.0004	1.5793 ± 0.0004	1.5781 ± 0.0004	1.5769 ± 0.0004	1.5757 ± 0.0004	1.5745 ± 0.0004	1.5733 ± 0.0004	1.5721 ± 0.0004	1.5709 ± 0.0004	1.5697 ± 0.0004	refractive index (333.15 K): 1.5685 ± 0.0004; refractive index (335.65 K): 1.5674 ± 0.0004; refractive index (338.15 K): 1.5662 ± 0.0004
OCc1cccs1 [2-thiophenemethanol]	1.5713 ± 0.0004	1.5701 ± 0.0004	1.569 ± 0.0004	1.5679 ± 0.0004	1.5668 ± 0.0004	1.5657 ± 0.0004	1.5646 ± 0.0004	1.5635 ± 0.0004	1.5624 ± 0.0004	1.5613 ± 0.0004	1.5602 ± 0.0004	1.559 ± 0.0004	1.5579 ± 0.0004	1.5568 ± 0.0004	1.5557 ± 0.0004	1.5546 ± 0.0004	1.5535 ± 0.0004	1.5524 ± 0.0004	1.5513 ± 0.0004	1.5502 ± 0.0004	refractive index (333.15 K): 1.5491 ± 0.0004; refractive index (335.65 K): 1.548 ± 0.0004; refractive index (338.15 K): 1.5468 ± 0.0004
